Reference: patent US4004008A, “O-Tertiary amino-alkyl-N-benzoyl tyrosil amides” (priority 1974, dated 1977)

Columns and labels:
[1] = tested on: ileum of a cavy (BaCl2 spasm); assay: Antispastic activity in vitro, Magnus method, cavy ileum stimulated with BaCl2; assay type: cell-based; conditions: ratio to papaverine = 1; Table 1; 37°
Method: C. The method in vitro is that of Magnus, with the ileum of the cavy, and is in common use for all evaluations. It consists of extracting the ileum from the cavy and placing it in a receptacle which contains nutritive liquid, suitably oxygenated, and registering the movements of the organ which remains alive for several hours if maintained at a temperature of 37°. According to the traditional method followed by us, BaCl2 is put into the bath as a spasmisant: the reaction is a violent contraction of the organ. This contraction can be prevented by adding beforehand pharmaceuticals which inhibit spasms, and in this case our compounds.
The values recorded are expressed as relation between papaverine and the ED50 of our compounds. (As is known, the ED50 is the dose which results in a 50% reduction in spastic contraction).
E. I.T.2 is the therapeutic index under the profile of the antispastic activity in vitro and is given by the product between the in vitro antispastic activity index (column 4) and the corresponding DL50 (column 2).

rat = assay: Acute toxicity (DL50) i.v. in rat; assay type: in vivo; conditions: dose causing death in 50% of the animals
Method: (§1) In this table (n. 1) there are recorded the compounds described in the examples with their relative serial numbers, the acute toxicity, the antispastic activity observed in two experimental tests, one "in vivo" and one "in vitro". There are moreover recorded two therapeutic indices which take account of the toxicity of these compounds in relation to their in vivo and in vitro activity. More precisely:
(§2) A. DL50 which, as is known, is the quantity of the substance expressed in mg/kg of animal weight, capable of causing death in 50% of the animals treated.

[2] = tested on: intestinal transit of the charcoal; assay: Vegetable carbon (charcoal) intestinal transit test in vivo; design: species or system rat; conditions: i.v., rat, charcoal test, 2 hours; for ED50: Rattus norvegicus, iv, 2 h, read-out: Antisp. activity in transit test: ED50
Method: B. The vegetable carbon method in vivo (charcoal method) which consists of administering by oral means to rats, which have fasted for 24 hours, 0.3ml/per rate of a mixture consisting of: 10g of charcoal and 5 g of gum arabic suspended in a volume of 100 cc of H2 O as well as at the same time the substance being studied, accordingly as desired, generally i.v., s.c., oral. After two hours the animals are killed and those are taken to be negative in which the charcoal has reached the first portion of the colon and the others positive, in the sense that the substance administered has slowed down the intestinal transit of the charcoal.
In effect the animals treated with a physiological solution (checks) are all negative after two hours.
D. I.T.1 is the therapeutic index under the profile of the antispastic activity in vivo, and it is obtained by recording the DL50 (column 2) with the ED50 of the charcoal test (column 3).

[3] = Acute toxicity (DL50) i.v. in rat; assay type: in vivo; conditions: in vivo, iv, dose causing death in 50% of the animals
Method: as §1, §2

| Molecule | Antisp. activity in vitro on the ileum of a cavy by Stim. BaCl2: ED50 pap./ED50 CR [1] | DL50 in a rat (rat) [mg/kg] | Antisp. activity in transit test: ED50 ([2]; 120 min) [mg/kg] | Antisp. activity in transit test: ED50 [2] | LD50 [3] [mg/kg] | ED50 [2] [mg/kg] |
| --- | --- | --- | --- | --- | --- | --- |
| CCCN(CCC)C(=O)C(Cc1ccc(OCCCN(C)C)cc1)NC(=O)c1ccccc1 (racemic) [CR 607, O-(3-dimethylamino-propyl)-N-benzoyl-DL-tyrosil-di-n-propylamide] | 0.41 | 32.4 | 26.7 |  |  |  |
| CCCN(CCC)C(=O)C(Cc1ccc(OCCN(C)C)cc1)NC(=O)c1ccc(C)cc1 (racemic) [CR 615, O-(2-dimethylamino-ethyl)-N-toluoyl-DL-tyrosil-di-n-propylamide] | 0.69 | 48.1 |  | inactive |  |  |
| CCCN(CCC)C(=O)C(Cc1ccc(OCCN2CCCC2)cc1)NC(=O)c1ccc(C)cc1 (racemic) [CR 650, O-(2-pyrrolidil-N'-ethyl)-N-toluoyl-DL-tyrosil-di-n-propylamide] | 1.17 | 17.5 |  | 18.4 mg/kg |  |  |
| CCCCN(CCCC)C(=O)C(Cc1ccc(OCCCN2CCN(C)CC2)cc1)NC(=O)c1ccccc1Cl (racemic) [CR 731, O-[3-(N"-methyl-piperazine)-N'-propyl]-N-(o-chloro-benzoyl)-DL-tyrosil-di-n-butylamide] | 1.75 | 61 |  | 39.4 mg/kg |  |  |
| CCN(CC)CCOc1ccc(CC(NC(=O)c2ccccc2)C(=O)N(CC)CC)cc1 (racemic) [CR 734, O-(2-diethylamino-ethyl)-N-benzoyl-DL-tyrosil-di-ethylamide] | 0.52 |  |  |  | 62.2 | 33.4 |
| CCN(CC)C(=O)C(Cc1ccc(OCCN2CCN(C)CC2)cc1)NC(=O)c1ccccc1 (racemic) [CR 736, O-[2-(N"-methyl-piperazine)-N'-ethyl]-N-benzoyl-DL-tyrosildiethylamide] | 0.04 |  |  |  | 102 | 39.6 |
| CCN(CC)CCOc1ccc(CC(NC(=O)c2ccccc2)C(=O)N(C)C)cc1 (racemic) [CR 738, O-(2-diethylamino-ethyl)-N-benzoyl-DL-tyrosil-di-methylamide] | 0.14 |  |  |  | 85.3 | 50.6 |
| CCN(CC)CCOc1ccc(CC(NC(=O)c2ccccc2)C(N)=O)cc1 (racemic) [CR 740, O-(2-dietylamino-ethyl)-N-benzoyl-DL-tyrosil-amide] | 0.36 |  |  | inactive | 102 |  |
| CCCCNC(=O)C(Cc1ccc(OCCN(CC)CC)cc1)NC(=O)c1ccccc1 (racemic) [CR 786, O-(2-diethylamine-ethyl)-N-benzoyl-DL-tyrosil-n-butylamide] | 0.17 |  |  |  | 38 | 34.3 |
| CCCN(CCC)C(=O)C(Cc1ccc(OCCN(CC)CC)cc1)NC(=O)c1ccc(C)cc1 (racemic) [CR 807, O-(2-diethylamino-ethyl)-N-toluoyl-DL-tyrosil-di-n-propylamide] | 0.34 | 31.5 |  | 21 mg/kg |  |  |
| CCCCNC(=O)C(Cc1ccc(OCCN2CCCC2)cc1)NC(=O)c1ccc(Cl)cc1 (racemic) [CR 812, O-(2'-pyrrolidil-N'-ethyl)-N-(p-chloro-benzoyl)-DL-tyrosil-n-butylamide] | 1.03 |  |  |  | 27 | 21 |
| CCCNC(=O)C(Cc1ccc(OCCN2CCCC2)cc1)NC(=O)c1ccccc1 (racemic) [CR 821, O-(2-pyrrolidil-N'-ethyl)-N-benzoyl-DL-tyrosil-n-propylamide] | 0.13 |  |  |  | 53 | 15.6 |
| CCCN(CCC)CCOc1ccc(CC(NC(=O)c2ccccc2)C(=O)N(CCC)CCC)cc1 (racemic) [CR 823, O-(2-di-n-propylamino-ethyl)-N-benzoyl-DL-tyrosil-di-n-propylamide] | 1.48 |  |  |  | 23 | 16.2 |
| CCCCCCNC(=O)C(Cc1ccc(OCCN2CCCC2)cc1)NC(=O)c1ccccc1 (racemic) [CR 825, O-(2-pyrrolidil-N'-ethyl)-N-benzoyl-DL-tyrosil-n-hexylamide] | 1.8 |  |  |  | 42 | 14.8 |
| CCCN(CCC)C(=O)C(Cc1ccc(OCCN(CC)CC)cc1)NC(=O)OCc1ccccc1 (racemic) [CR 832, O-(2-diethylamino-ethyl)-N-carbobenzoxy-DL-tyrosil-di-n-propylamide] | 1.40 |  |  |  | 32.4 | 16.3 |
| CN(C)CCOc1ccc(C[C@H](NC(=O)OCc2ccccc2)C(=O)N2CCOCC2)cc1 [CR 606, O-(2-dimethylamino-ethyl)-N-carbobenzoxy-L-tyrosil-morpholylamide] | 0.19 |  |  | inactive | 128 |  |
| CCNC(=O)C(Cc1ccc(OCCN(C)C)cc1)NC(=O)OCc1ccccc1 [CR 610, O-(2-dimethylamino-ethyl)-N-carbobenzoxy-L-tyrosil-ethylamide] | 0.13 |  |  |  | 139 | 58.1 |
| CN(C)CCOc1ccc(C[C@H](NC(=O)OCc2ccccc2)C(=O)NCc2ccccc2)cc1 [CR 612, O-(2-dimethylamino-ethyl)-N-carbobenzoxy-L-tyrosil-benzylamide] | 0.35 |  |  |  | 87.7 | 23 |
| CCCN(CCC)C(=O)C(Cc1ccc(OCCN(C)C)cc1)NC(=O)OCc1ccc([N+](=O)[O-])cc1 (centres unmarked) [CR 613] | 0.68 |  |  |  | 100 | 58.7 |
| CCCN(CCC)C(=O)C(Cc1ccc(OCCN(CC)CC)cc1)NC(=O)c1ccccc1 [CR 804, O-(2-diethylamino-ethyl)-N-benzoyl-L-tyrosil-di-n-propylamide] | 0.89 |  |  |  | 33.5 | 16.1 |
| CCCN(CCC)C(=O)C(Cc1ccc(OCCN(CC)CC)cc1)NC(=O)OCc1ccccc1 [CR 830, O-(2-diethylamino-ethyl)-N-carbobenzoxy-L-tyrosil-di-n-propylamide] | 1.49 |  |  |  | 31.5 | 17.3 |
| CCCN(CCC)C(=O)C(Cc1ccc(OCCN(CC)CC)cc1)NC(=O)c1ccc(Cl)cc1 [CR 831, O-(2-diethylamino-ethyl)-N-(p-chloro-benzoyl)-L-tyrosil-din-propylamide] | 1.30 |  |  |  | 35 | 24.4 |
| O-(2-diisopropylamino-ethyl)-N-toluoyl-DL-tyrosil-n-butylamide [CR 709] |  | 40 |  | 36.1 mg/kg |  |  |
